The numbers were not newly measured in paper PMC8391575, “Identification of Novel Cathepsin B Inhibitors with Implications in Alzheimer’s Disease: Computational Refining and Biochemical Evaluation” (Cells, 2021), which cites them from elsewhere.

This series relates to cathepsin B. Conditions: cited from earlier work.
[1] abbreviates: Figure 1, previously reported inhibitors of cathepsin B, read-out: IC50.
The mark [2] stands for this setting: class of the experimental IC50, read-out: Activity Scale Experimental.
[3] abbreviates: Table S1, read-out: IC50: half maximal inhibitory concentration.

Each structure is given as a SMILES string. Read-outs that look alike come from different tables or passages of the source.

Consider `COc1ccc(-c2cc(=O)c3c(O)cc(O)c(-c4cc(-c5cc(=O)c6c(O)cc(O)cc6o5)ccc4O)c3o2)cc1` [AMF2, 4’’’-methylamentoflavone], for which the IC50 under setting [1] is 1.03 µM.

In the case of `O=C1C[C@@H](c2ccc(O)c(-c3c(O)cc(O)c4c(=O)cc(-c5ccc(O)cc5)oc34)c2)Oc2cc(O)cc(O)c21` [AMF4, 2,3-dihydroamentoflavone], the IC50 under setting [1] was 0.62 µM.

For `COc1ccc(-c2cc(=O)c3c(O)cc(O)cc3o2)cc1-c1c(O)cc(O)c2c(=O)cc(-c3ccc(O)cc3)oc12` [AMF5, 4’-methylamentoflavone], the IC50 under setting [1] was 0.81 µM.

Take `CC(C)CC(NC(=O)C1OC1C(=O)O)C(=O)NCCCCCO` (stereo not drawn) [Compound N1, 3-[[1-(5-hydroxypentylamino)-4-methyl-1-oxopentan-2-yl]carbamoyl]oxirane-2-carboxylic acid]: the “pIC50 Experimental” value (Table 4) is 7.14. Besides, the IC50 under setting [2] is less than 0.3 µM.

For the molecule `CC(C)C[C@H](NC(=O)C1OC1C(=O)O)C(=O)NCCCC[C@H](N)C(=O)O` (stereo partly drawn) [Compound N2, 3-[[(2S)-1-[[(5S)-5-amino-5-carboxypentyl]amino]-4-methyl-1-oxopentan-2-yl]carbamoyl]oxirane-2-carboxylic acid], under “Table 4”, the “pIC50 Experimental” value is reported as 6.89. The IC50 is 0.13 µM under setting [3] and less than 0.3 µM under setting [2].

In the case of `O=c1cc(-c2ccc(O)c(-c3c(O)cc(O)c4c(=O)cc(-c5ccc(O)cc5)oc34)c2)oc2cc(O)cc(O)c12` [Compound N3, 8-[5-(5,7-dihydroxy-4-oxochromen-2-yl)-2-hydroxyphenyl]-5,7-dihydroxy-2-(4-hydroxyphenyl)chromen-4-one], the IC50 is 1.17 µM under setting [1], 1.75 µM under setting [3] and 0.3 to 2.5 µM under setting [2]. The “pIC50 Experimental” value (Table 4) is listed as 5.76.

As to `COc1ccc(-c2cc(=O)c3c(O)cc(O)c(-c4cc(-c5cc(=O)c6c(O)cc(OC)cc6o5)ccc4OC)c3o2)cc1` [Compound N4, 5,7-dihydroxy-8-[5-(5-hydroxy-7-methoxy-4-oxochromen-2-yl)-2-methoxyphenyl]-2-(4-methoxyphenyl)chromen-4-one], the “pIC50 Experimental” value (Table 4) is 6.21. Moreover, the IC50 reads like this: under setting [3], 0.62 µM; under setting [2], 0.3 to 2.5 µM.

Take `NCCCCNC(=O)[C@H](Cc1ccccc1)NC(=O)[C@H]1O[C@@H]1C(=O)O` [Compound N6, (2S,3S)-3-({(2S)-1-[(4-Aminobutyl)amino]-1-oxo-3-phenyl-2-propanyl}carbamoyl)-2-oxiranecarboxylic acid]: under “Table 4”, the “pIC50 Experimental” value is recorded as 6.58. The IC50 under setting [3] was 0.26 µM and the IC50 under setting [2] is less than 0.3 µM.

`NCCCCNC(=O)[C@H](Cc1ccc(O)cc1)NC(=O)[C@H]1O[C@@H]1C(=O)O` [Compound N7, (2S,3S)-3-{[(2S)-1-[(4-Aminobutyl)amino]-3-(4-hydroxyphenyl)-1-oxo-2-propanyl]carbamoyl}-2-oxiranecarboxylic acid]: the “pIC50 Experimental” value (Table 4) was 6.55. The IC50 is, setting by setting: under setting [3], 0.28 µM; under setting [2], less than 0.3 µM.

With `CC1=C(O)C(=O)C=C2C1=CC=C1[C@@]2(C)CC[C@@]2(C)[C@@H]3C[C@](C)(C(=O)O)CC[C@]3(C)CC[C@]12C` [Compound N8, (2R,4aS,6aR,6aS,14aS,14bR)-10-hydroxy-2,4a,6a,6a,9,14a-hexamethyl-11-oxo-1,3,4,5,6,13,14,14b-octahydropicene-2-carboxylic acid], under “Table 4”, the “pIC50 Experimental” value is recorded as 3.91. For the same molecule, the IC50 is 1.25 µM under setting [3], greater than 2.5 µM under setting [2] and 125 µM (read-out: IC50).

With `CC(C)C[C@H](NC(=O)[C@@H](NC(=O)N[C@@H](Cc1ccccc1)C(=O)O)C1CCN=C(N)N1)C(=O)N[C@H](C=O)Cc1ccccc1` (stereo partly drawn) [Compound N9, (2S)-2-[[(1S)-1-(2-amino-1,4,5,6-tetrahydropyrimidin-6-yl)-2-[[(2S)-4-methyl-1-oxo-1-[[(2S)-1-oxo-3-phenylpropan-2-yl]amino]pentan-2-yl]amino]-2-oxoethyl]carbamoylamino]-3-phenylpropanoic acid], the “pIC50 Experimental” value (Table 4) is given as 5.59. Besides, the IC50 under setting [3] is 2.6 µM and the IC50 under setting [2] was greater than 2.5 µM.

On to `O=[N+]([O-])NC1=NCCN1Cc1ccc(Cl)nc1` [Compound N10, N-[1-[(6-chloropyridin-3-yl)methyl]-4,5-dihydroimidazol-2-yl]nitramide], for which the “pIC50 Experimental” value (Table 4) was 8.03. Moreover, the IC50 under setting [2] was less than 0.3 µM.

As for `Cc1c2ccncc2c(C)c2c1[nH]c1ccccc12` [Compound N12, 5,11-dimethyl-6H-pyrido[4,3-b]carbazole], the “pIC50 Experimental” value (Table 4) is given as 7.99. In addition, the IC50 under setting [2] was less than 0.3 µM.

Regarding `CC(C)C[C@H](NC(=O)[C@H]1O[C@@H]1C(=O)O)C(=O)NCCCCN=C(N)N` [Compound N13, (2S,3S)-3-[[(2S)-1-[4-(diaminomethylideneamino)butylamino]-4-methyl-1-oxopentan-2-yl]carbamoyl]oxirane-2-carboxylic acid], the “pIC50 Experimental” value (Table 4) is reported as 8.28. Also, under setting [2], the IC50 is less than 0.3 µM.

On to `CC(C)CCNC(=O)[C@H](CC(C)C)NC(=O)[C@H]1O[C@@H]1C(=O)O` [Compound N14, (2S,3S)-3-[[(2S)-4-methyl-1-(3-methylbutylamino)-1-oxopentan-2-yl]carbamoyl]oxirane-2-carboxylic acid], for which the “pIC50 Experimental” value was 8.47. Moreover, for the setting “read-out: Activity Scale Experimental”, the IC50 is less than 0.3 µM.

Turning to `NC(N)=NCCCCNC(=O)C(Cc1ccccc1)NC(=O)C1OC1C(=O)O` (stereo not drawn) [Compound N15, 3-[[1-[4-(diaminomethylideneamino)butylamino]-1-oxo-3-phenylpropan-2-yl]carbamoyl]oxirane-2-carboxylic acid], the “pIC50 Experimental” value (Table 4) is 6.57. Besides, the IC50 is, setting by setting: under setting [3], 0.27 µM; under setting [2], less than 0.3 µM.

Consider `NC(N)=NCCCCNC(=O)C(Cc1ccc(O)cc1)NC(=O)C1OC1C(=O)O` (stereo not drawn) [Compound N16, 3-[[1-[4-(diaminomethylideneamino)butylamino]-3-(4-hydroxyphenyl)-1-oxopropan-2-yl]carbamoyl]oxirane-2-carboxylic acid], for which the “pIC50 Experimental” value (Table 4) was 6.49. For the same molecule, the IC50 runs as follows: under setting [3], 0.32 µM; under setting [2], 0.3 to 2.5 µM.

Regarding `COc1cc(O)c2c(=O)cc(-c3ccc(OC)c(-c4c(O)cc(O)c5c(=O)cc(-c6ccc(O)cc6)oc45)c3)oc2c1` [Compound N17, 5,7-dihydroxy-8-[5-(5-hydroxy-7-methoxy-4-oxochromen-2-yl)-2-methoxyphenyl]-2-(4-hydroxyphenyl)chromen-4-one], the “pIC50 Experimental” value (Table 4) is 6.26. In addition, the IC50 under setting [3] is 0.55 µM and the IC50 under setting [2] was 0.3 to 2.5 µM.

`COc1cc(OC)cc(-c2cc3cnc(N)nc3nc2NC(=O)NC(C)(C)C)c1` [Compound N18, 1-[2-amino-6-(3,5-dimethoxyphenyl)pyrido[2,3-d]pyrimidin-7-yl]-3-tert-butylurea]: where the note is “Table 4”, the “pIC50 Experimental” value is reported as 6.24. The IC50 runs as follows: under setting [3], 0.58 µM; under setting [2], 0.3 to 2.5 µM.

As for `CC(=O)N[C@@H](CC(C)C)C(=O)N[C@@H](CC(C)C)C(=O)N[C@H](C=O)CCCN=C(N)N` [Compound N19, 2-acetamido-N-[1-[[5-(diaminomethylideneamino)-1-oxopentan-2-yl]amino]-4-methyl-1-oxopentan-2-yl]-4-methylpentanamide; 2,2,2-trifluoroacetic acid], the “pIC50 Experimental” value (Table 4) is 6.36. The IC50 was 0.44 µM under setting [3] and 0.3 to 2.5 µM under setting [2].
